# According to patent publication US20100267561A1, “HERBICIDAL PYRIDAZINONE DERIVATIVES” (priority 2007, published 2010):
# Assays:
# Assay type in all cases: in vivo
# [1] = tested on: canola (Brassica rapa); experiment: Test C pre-/postemergence plant response
# Procedure, shortened: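 Pre/post spray; solvent blend non-phytotoxic, with surfactant; post stage 1–4 leaves (2–18 cm); controlled environment 15–25 d; visual score 0–100 relative to controls, 100 = complete control.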
# [2] = tested on: blackgrass (Alopecurus myosuroides); experiment: Test A pre-/postemergence plant response
# Procedure, shortened: (§1)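 Ratings run 0–100 (100 = complete control), assigned visually against untreated controls roughly 10 days after treatment in a greenhouse. Compounds, formulated in non-phytotoxic solvent containing surfactant, were applied as a soil-directed preemergence spray and concurrently postemergence to one- to two-leaf plants 2–10 cm tall.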
# [3] = tested on: canarygrass (Phalaris minor); experiment: Test A pre-/postemergence plant response
# Procedure, shortened: as §1
# [4] = tested on: tropical (T.) spiderwort (Commelina benghalensis); experiment: Test E pre-/postemergence plant response; conditions: scale 0 to 100
# Procedure, shortened: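 Greenhouse test. Compound, formulated in a non-phytotoxic solvent with surfactant, is applied preemergence to planted seeds and postemergence to 1- to 4-leaf plants of 2 to 18 cm. Plants are compared with controls after 14 to 21 days and scored 0 (no effect) to 100 (complete control).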
# [5] = Preemergence, 8 g ai/ha, scale 0 to 100 (0 no effect, 100 complete control)
# [6] = Preemergence, 16 g ai/ha, scale 0 to 100 (0 no effect, 100 complete control)
# [7] = Preemergence, 31 g ai/ha, scale 0 to 100 (0 no effect, 100 complete control)
# [8] = Preemergence, 62 g ai/ha, scale 0 to 100, 0 no effect, 100 complete control
# [9] = Postemergence, 31 g ai/ha, 0 to 100 scale (0 no effect, 100 complete control)
# [10] = Postemergence, 125 g ai/ha, 0 to 100 scale, 0 no effect, 100 complete control
# [11] = Preemergence, 31 g ai/ha, 0 to 100 scale, 0 is no effect, 100 is complete control
# [12] = Preemergence, 125 g ai/ha, 0 to 100 scale (0 no effect, 100 complete control)
# [13] = Postemergence, 8 g ai/ha, scale 0 to 100, 0 no effect, 100 complete control
# [14] = Postemergence, 16 g ai/ha, scale 0 to 100, 0 no effect, 100 complete control
# [15] = Postemergence, 31 g ai/ha, scale 0 to 100, 0 no effect, 100 complete control
# [16] = Postemergence, 62 g ai/ha, scale 0 to 100, 0 no effect, 100 complete control
compound,measurement,setting,value
"Cc1cn(-c2ccc(Cl)cc2)nc1-c1c(O)cnn(C)c1=O [Compound 30, 4-[1-(4-chlorophenyl)-4-methyl-1H-pyrazol-3-yl]-5-hydroxy-2-methyl-3(2H)-pyridazinone]","Plant response rating, Canola",[1]; [5],0
same,"Plant response rating, Canola",[1]; [6],0
same,"Plant response rating, Canola",[1]; [7],0
same,"Plant response rating, Canola",[1]; [8],0
CCc1cc(-c2ccc(Cl)cc2)nn1-c1c(OC(=O)OC(C)C)cnn(C)c1=O [Compound 41],"Plant response rating, Canola",[1]; [5],0
same,"Plant response rating, Canola",[1]; [6],0
same,"Plant response rating, Canola",[1]; [7],0
same,"Plant response rating, Canola",[1]; [8],0
Cn1ncc(O)c(-c2nn(-c3ccc(Cl)cc3)cc2Cl)c1=O [Compound 28],"Plant response rating, Canola",[1]; [5],0
same,"Plant response rating, Canola",[1]; [6],0
same,"Plant response rating, Canola",[1]; [7],0
same,"Plant response rating, Canola",[1]; [8],0
"Cc1cc(-c2ccc(Br)cc2)nn1-c1c(O)cn[nH]c1=O [Compound 78, 4-[3-(4-bromophenyl)-5-methyl-1H-pyrazol-1-yl]-5-hydroxy-3(2H)-pyridazinone]","Plant response rating, Blackgrass",[2]; [9],90
same,"Plant response rating, Blackgrass",[2]; [10],100
same,"Plant response rating, Blackgrass",[2]; [11],0
same,"Plant response rating, Blackgrass",[2]; [12],100
same,"Plant response rating, Canarygrass",[3]; [9],40
same,"Plant response rating, Canarygrass",[3]; [10],70
same,"Plant response rating, Canarygrass",[3]; [11],0
same,"Plant response rating, Canarygrass",[3]; [12],100
CCc1cc(-c2ccc(Cl)cc2)nn1-c1c(OC(=O)C(C)(C)C)cnn(C)c1=O [Compound 40],"Plant response rating, Spiderwort, T.","[4]; 16 g ai/ha, Preemergence",0
same,"Plant response rating, Spiderwort, T.","[4]; 31 g ai/ha, Preemergence",0
same,"Plant response rating, Spiderwort, T.","[4]; 62 g ai/ha, Preemergence",0
same,"Plant response rating, Spiderwort, T.","[4]; Postemergence, 8 g ai/ha",0
same,"Plant response rating, Spiderwort, T.","[4]; Postemergence, 16 g ai/ha",0
same,"Plant response rating, Spiderwort, T.","[4]; Postemergence, 31 g ai/ha",0
same,"Plant response rating, Spiderwort, T.","[4]; Postemergence, 62 g ai/ha",0
"Cc1nn(C)c(=O)c(-n2nc(-c3ccc(C(F)(F)F)cc3)cc2C)c1O [Compound 75, 5-hydroxy-2,6-dimethyl-4-[5-methyl-3-[4-(trifluoromethyl)phenyl]-1H-pyrazol-1-yl]-3(2H)-pyridazinone]","Plant response rating, Blackgrass",[2]; [9],40
same,"Plant response rating, Blackgrass",[2]; [10],90
same,"Plant response rating, Blackgrass",[2]; [11],40
same,"Plant response rating, Blackgrass",[2]; [12],80
same,"Plant response rating, Canarygrass",[3]; [9],10
same,"Plant response rating, Canarygrass",[3]; [10],80
same,"Plant response rating, Canarygrass",[3]; [11],10
same,"Plant response rating, Canarygrass",[3]; [12],80
Cc1cc(-c2ccc(Cl)cc2)nn1-c1c(OC(=O)OCC(C)C)cnn(C)c1=O [Compound 57],"Plant response rating, Canola",[1]; [13],0
same,"Plant response rating, Canola",[1]; [14],0
same,"Plant response rating, Canola",[1]; [15],0
same,"Plant response rating, Canola",[1]; [16],0
same,"Plant response rating, Canola",[1]; [5],0
same,"Plant response rating, Canola",[1]; [8],0
Cc1cc(-c2ccc(Cl)cc2)nn1-c1c(OS(C)(=O)=O)cnn(C)c1=O [Compound 36],"Plant response rating, Spiderwort, T.","[4]; 16 g ai/ha, Preemergence",0
same,"Plant response rating, Spiderwort, T.","[4]; 31 g ai/ha, Preemergence",0
same,"Plant response rating, Spiderwort, T.","[4]; 62 g ai/ha, Preemergence",0
same,"Plant response rating, Spiderwort, T.","[4]; Postemergence, 8 g ai/ha",0
same,"Plant response rating, Spiderwort, T.","[4]; Postemergence, 16 g ai/ha",0
same,"Plant response rating, Spiderwort, T.","[4]; Postemergence, 31 g ai/ha",0
same,"Plant response rating, Spiderwort, T.","[4]; Postemergence, 62 g ai/ha",0
Cn1ncc(O)c(-c2nn(-c3ccc(Cl)cc3)cc2Br)c1=O [Compound 31],"Plant response rating, Spiderwort, T.","[4]; 16 g ai/ha, Preemergence",0
same,"Plant response rating, Spiderwort, T.","[4]; 31 g ai/ha, Preemergence",0
same,"Plant response rating, Spiderwort, T.","[4]; 62 g ai/ha, Preemergence",0
same,"Plant response rating, Spiderwort, T.","[4]; Postemergence, 8 g ai/ha",0
same,"Plant response rating, Spiderwort, T.","[4]; Postemergence, 16 g ai/ha",0
same,"Plant response rating, Spiderwort, T.","[4]; Postemergence, 31 g ai/ha",0
same,"Plant response rating, Spiderwort, T.","[4]; Postemergence, 62 g ai/ha",0
CCc1cc(-c2ccc(F)cc2)nn1-c1c(O)cnn(C)c1=O [Compound 25],"Plant response rating, Canola",[1]; [13],0
same,"Plant response rating, Canola",[1]; [14],0
same,"Plant response rating, Canola",[1]; [15],0
same,"Plant response rating, Canola",[1]; [16],0
same,"Plant response rating, Canola",[1]; [5],0
same,"Plant response rating, Canola",[1]; [6],0
same,"Plant response rating, Canola",[1]; [7],0
same,"Plant response rating, Canola",[1]; [8],0
Cc1nn(C)c(=O)c(-n2nc(-c3ccc(Br)cc3)cc2C)c1O [Compound 81],"Plant response rating, Blackgrass",[2]; [9],100
same,"Plant response rating, Blackgrass",[2]; [10],100
same,"Plant response rating, Blackgrass",[2]; [11],70
same,"Plant response rating, Blackgrass",[2]; [12],100
same,"Plant response rating, Canarygrass",[3]; [9],60
same,"Plant response rating, Canarygrass",[3]; [10],100
same,"Plant response rating, Canarygrass",[3]; [11],50
same,"Plant response rating, Canarygrass",[3]; [12],90
COC(=O)Oc1cnn(C)c(=O)c1-n1nc(-c2ccc(Cl)cc2)cc1C [Compound 33],"Plant response rating, Spiderwort, T.","[4]; 16 g ai/ha, Preemergence",0
same,"Plant response rating, Spiderwort, T.","[4]; 31 g ai/ha, Preemergence",0
same,"Plant response rating, Spiderwort, T.","[4]; 62 g ai/ha, Preemergence",0
same,"Plant response rating, Spiderwort, T.","[4]; Postemergence, 8 g ai/ha",0
same,"Plant response rating, Spiderwort, T.","[4]; Postemergence, 16 g ai/ha",0
same,"Plant response rating, Spiderwort, T.","[4]; Postemergence, 62 g ai/ha",0
same,"Plant response rating, Canola",[1]; [5],0
same,"Plant response rating, Canola",[1]; [6],0
same,"Plant response rating, Canola",[1]; [7],0
same,"Plant response rating, Canola",[1]; [8],0
CCc1cc(-c2ccc(Cl)cc2)nn1-c1c(OS(C)(=O)=O)cnn(C)c1=O [Compound 39],"Plant response rating, Spiderwort, T.","[4]; 16 g ai/ha, Preemergence",0
same,"Plant response rating, Spiderwort, T.","[4]; 31 g ai/ha, Preemergence",0
same,"Plant response rating, Spiderwort, T.","[4]; 62 g ai/ha, Preemergence",0
same,"Plant response rating, Spiderwort, T.","[4]; Postemergence, 8 g ai/ha",0
same,"Plant response rating, Spiderwort, T.","[4]; Postemergence, 16 g ai/ha",0
same,"Plant response rating, Spiderwort, T.","[4]; Postemergence, 31 g ai/ha",0
same,"Plant response rating, Spiderwort, T.","[4]; Postemergence, 62 g ai/ha",0
COCc1cc(-c2ccc(Br)cc2)nn1-c1c(O)cnn(C)c1=O [Compound 68],"Plant response rating, Blackgrass",[2]; [9],0
same,"Plant response rating, Blackgrass",[2]; [10],80
same,"Plant response rating, Blackgrass",[2]; [11],0
same,"Plant response rating, Blackgrass",[2]; [12],50
same,"Plant response rating, Canarygrass",[3]; [9],0
same,"Plant response rating, Canarygrass",[3]; [10],40
same,"Plant response rating, Canarygrass",[3]; [11],0
same,"Plant response rating, Canarygrass",[3]; [12],20
Cc1cc(-c2ccc(Cl)cc2)nn1-c1c(OC(=S)N(C)C)cnn(C)c1=O [Compound 69],"Plant response rating, Blackgrass",[2]; [9],10
same,"Plant response rating, Blackgrass",[2]; [10],60
same,"Plant response rating, Blackgrass",[2]; [11],20
same,"Plant response rating, Blackgrass",[2]; [12],40
same,"Plant response rating, Canarygrass",[3]; [9],0
same,"Plant response rating, Canarygrass",[3]; [10],80
same,"Plant response rating, Canarygrass",[3]; [12],80
CCc1cc(-c2ccc(Cl)c(Cl)c2)nn1-c1c(O)cnn(C)c1=O [Compound 20],"Plant response rating, Canola",[1]; [13],0
same,"Plant response rating, Canola",[1]; [14],0
same,"Plant response rating, Canola",[1]; [15],0
same,"Plant response rating, Canola",[1]; [16],0
"Cc1cc(-c2ccc(Br)cc2)nn1-c1c(OC(=O)C2CC2)cnn(C(=O)C2CC2)c1=O [Compound 80, 5-[3-(4-bromophenyl)-5-methyl-1H-pyrazol-1-yl]-1-(cyclopropylcarbonyl)-1,6-dihydro-6-oxo-4-pyridazinyl cyclopropanecarboxylate]","Plant response rating, Blackgrass",[2]; [9],30
same,"Plant response rating, Blackgrass",[2]; [10],100
same,"Plant response rating, Blackgrass",[2]; [11],70
same,"Plant response rating, Blackgrass",[2]; [12],100
same,"Plant response rating, Canarygrass",[3]; [9],40
same,"Plant response rating, Canarygrass",[3]; [10],100
same,"Plant response rating, Canarygrass",[3]; [11],60
same,"Plant response rating, Canarygrass",[3]; [12],100
